Reference: patent US20240199555A1, “APPLICATIONS OF BIASED LIGANDS OF THE SEROTONIN 5-HT7 RECEPTOR FOR THE TREATMENT OF PAIN, MULTIPLE SCLEROSIS AND THE CONTROL OF THERMOREGULATION” (Centre National de la Recherche Scientifique, priority 2021, published 2024)

How the values were obtained:
[1] = target: 5-HT7(b) receptors (Homo sapiens, UniProt P34969); experiment: BRET between 5-HT7-RLuc and Venus-mini G proteins (G protein recruitment); type: cell-based
Experimental: For −mGi, mG12 and mGq cells were also transfected with a receptor described as positively coupled to the G protein: Cells expressing the Adenosine 2 receptor A2R, the Histamine3 receptor H3R or the Ghrelin receptor GHSR were stimulated with adenosine, imetit or ghrelin respectively. Ligand mediated BRET changes are expressed as induced BRET changes which were generated by subtracting at each point the signal obtained on cells incubated with PBS (without ligand).
To evaluate Gαs, Gαq, Gαi recruitment, cells were transiently transfected with 5-HT7R(b) C—terminally fused with donor Rluc (5-HT7R-Rluc) and acceptor NESVenus. mGs, or NES-Venus-mGsq or NES-Venus-mGsi (kindly provided by Pr. N. A. Lambert, Augusta University, Augusta, USA) (Ayoub, M. A., Landomiel, F., Gallay, N., Jegot, G., Poupon, A., Crepieux, P., and Reiter, E. (2015) Assessing Gonadotropin Receptor Function by Resonance Energy Transfer-Based Assays. Front Endocrinol (Lausanne) 6, 130; Wan, Q., Okashah, N., Inoue, A., Nehme, R., Carpenter, B., Tate, C. G., and Lambert, N. A. (2018) Mini G protein probes for active G protein-coupled receptors (GPCRs) in live cells. […] Data were plotted and analysed using GraphPad Prism 4 software for Windows (GraphPad Software Inc, San Diego, CA, USA). […]

[2] = system: neuronal culture endogenously expressing 5-HT7R; experiment: pERK immunocytochemistry in mixed neuronal cultures; type: cell-based, mice; details: 10 μM; 7, 15, 30 min
Description: FIG. 4: Serodolin stimulation induces ERK phosphorylation in neuronal culture. […] These images are representative of two independent experiments. (B) pERK fluorescence intensity (AU) from immunofluorescence staining. Results represent mean±SEM of values obtained in two independent experiments (150-200 cells counted per group). ****P<0.0001 ***P<0.001 **P<0.01 *P<0.05. Statistical analysis was done using Tukey's multiple comparison test. Cerebral cortex from embryos (E15) mice were collected and mechanically dissociated in 1 mL of HBSS (-Ca^2+) (Sigma) with HEPES (H3375, Sigma). […] Neuronal differentiation was performed in 24-well plates, during 7 days with 3 medium changes per week. Stimulated neuronal culture were fixed with 4% paraformaldehyde in PBS during 10 min and then washed with PBS. Cells were saturated with 0.3% Triton X-100 in 1% BSA in TBS-FCS 10% for 1 hr, followed by three washes in TBS and incubated overnight with rabbit anti-pERK (9101 1/200, Cell Signaling) and mouse anti-MAP2 (119942 1/250, Sigma), anti-GFAP (G61711/250, Sigma) in TBS with 1% BSA, 10% FCS and 0.3% Triton X-100. […] Images were processed with the Zen software analyzed with Image J.

[3] = target: human 5-HT7a receptor (Homo sapiens (Human), UniProt P34969); experiment: Radioligand binding competition, filtration binding assay, 5-HT7a; details: affinity on 5-HT7 receptor, table of new compounds
human 5-HT7a receptor, sequence (P34969 other isoform, or with tags, fused parts or gaps): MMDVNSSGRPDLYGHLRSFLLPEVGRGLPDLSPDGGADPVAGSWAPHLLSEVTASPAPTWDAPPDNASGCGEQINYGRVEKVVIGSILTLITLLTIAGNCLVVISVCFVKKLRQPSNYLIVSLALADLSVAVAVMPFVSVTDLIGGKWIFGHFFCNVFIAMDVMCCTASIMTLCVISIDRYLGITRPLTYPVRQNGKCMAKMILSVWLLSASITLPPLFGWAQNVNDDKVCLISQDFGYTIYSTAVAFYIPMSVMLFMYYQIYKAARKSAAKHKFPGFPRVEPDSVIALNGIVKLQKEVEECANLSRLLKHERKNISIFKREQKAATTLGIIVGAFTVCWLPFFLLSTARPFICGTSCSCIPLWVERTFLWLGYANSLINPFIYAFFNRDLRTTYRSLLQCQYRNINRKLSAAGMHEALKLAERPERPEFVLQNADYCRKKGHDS

[4] = system: HEK-293 mock cells; experiment: Control in mock-transfected HEK-293 cells (cAMP, ERK phosphorylation); type: cell-based, human
Experimental: ERK phosphorylation was monitored by western blotting after treatment of cells with 10 μM of ligands at different times ranging from 2 to 60 minutes. […] The kinetics of ERK phosphorylation elicited by 5-CT, Serodolin and MOA-51 were very similar: activation was fast and transient, and reached a pick between 2 and 7 minutes after drug exposure. However, ERK phosphorylation-induced by Serodolin and MOA-51 was more protracted compared to 5-CT, the reference agonist.

[5] = system: mice; experiment: Acetic acid-induced writhing test; type: in vivo
Experimental: (§1) FIG. 9: Analgesic effect of Serodolin in the acetic acid-induced writhing test. In this test, nociception was induced by an intraperitoneally injection (ip) of 0.1 ml/10 g acid acetic solution (10 ml/kg) in peripheral origin. Serodolin at increasing dosage was administrated by oral (po), intravenous (iv) or subcutaneous (sc) route before acid acetic injection (upper panel). Positive control animals were pretreated morphine (3 mg/kg, sc) 10 minutes before acetic acid. Five minutes after i.p. injection of acetic acid the number of writhing was recorded for 10 minutes. Data mean±SEM of values obtained from a representative experiment (n=10 animals/group). ****p<0.0001 ***p<0.001 **p<0.01 *p<0.05 as compared with the control group (Vh).
as §1, with “16:” for “9:”, “MOA51” for “Serodolin”, “i.p.injection” for “i.p. injection”, “animals/group).” for “animals/group). ****p<0.0001 ***p<0.001”, “**p<0.01” for “**p<0.01 *p<0.05”
Writhing tests: Mice (25-35 g). Groups of mice (n=10) received by oral, subcutaneous or intravenous route Serodolin at different doses (0.1-10 mg/kg) one hour before intraperitoneally injection of 1% acetic acid in a volume of 10 ml/kg. Control group received vehicle (10 ml/kg, solution of 20% DMSO and 5% tween 80). The test was carried out 5 minutes later after acid acetic injection. The characteristic writhing responses have been observed individually and counted for 10 minutes.
Analgesic activity was first evaluated using the acetic acid abdominal constriction test (writhing test), a chemical model of visceral pain. We evaluated the dose-response effect of Serodolin following single oral, intravenous and subcutaneous administration of the compound one hour before injection of acetic acid.
Analgesic activity was evaluated using the acetic acid abdominal constriction test (writhing test), a chemical model of visceral pain. We evaluated the dose-response effect of MOA51 following single oral, intravenous and subcutaneous administration of the compound one hour before injection of acetic acid. MOA51 administered by the oral route induced statistically significant dose-dependent decreases in the number of writhings at and above the dose of 1 mg/kg. By the intravenous route, MOA51 induced dose-dependent decreases in the number of writhings at and above the dose of 0.1 mg/kg.

5-HT7(b) receptors, sequence (P34969 whole entry, looked up): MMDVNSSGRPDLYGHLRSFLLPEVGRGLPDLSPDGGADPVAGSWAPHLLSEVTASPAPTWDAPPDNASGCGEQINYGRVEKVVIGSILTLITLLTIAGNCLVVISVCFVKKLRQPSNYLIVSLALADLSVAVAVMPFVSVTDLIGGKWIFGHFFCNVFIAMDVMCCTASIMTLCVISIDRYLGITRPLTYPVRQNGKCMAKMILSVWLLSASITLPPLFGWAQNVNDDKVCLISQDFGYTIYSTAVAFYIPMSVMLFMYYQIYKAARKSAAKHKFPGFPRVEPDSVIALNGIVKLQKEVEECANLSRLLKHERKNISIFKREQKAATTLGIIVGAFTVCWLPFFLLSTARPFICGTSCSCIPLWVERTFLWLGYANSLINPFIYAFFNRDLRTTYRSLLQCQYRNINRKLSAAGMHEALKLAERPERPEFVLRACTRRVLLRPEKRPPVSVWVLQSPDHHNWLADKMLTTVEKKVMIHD

SMILES: O=c1[nH]c2ccccc2n1CN1CCN(c2ccc(F)cc2)CC1 [Serodolin]
- Gαs recruitment ([1]; mGs BRET): behaved as inverse for Gαs recruitment
- Gαi, Ga12 or Gαq recruitment ([1]; mGsi, mG12, mGsq BRET): neither classical (5-CT, SB 269970) nor biased 5-HT7R ligands (Serodolin) were able to induce the Gαi, Ga12 or Gαq recruitment
- ERK phosphorylation in neuronal culture [2]: ERK phosphorylation also occurs in neuronal culture
- IC50 [3]: 1.14 nM
- Ki [3]: 0.8 nM
- ERK phosphorylation in HEK-293 mock cells [4]: neither Serodolin, nor MOA-51 were able to induce ERK phosphorylation
- inhibition of the writhing assay response ([5]; at the highest dosage): up to 87%
- dose giving significant decrease in number of writhings, subcutaneous route ([5]; s.c., one hour before acetic acid): 0.1 mg/kg
